The results in this text go back to patent publication US20260132127A1, “NOVEL SPIRO COMPOUND” (MITSUBISHI TANABE PHARMA CORPORATION, priority 2021, published 2026).

The term IC50 denotes the concentration needed to halve the response being measured. Low values mean inhibition by little substance, high ones a need for much substance.

The assay concerns the target T1, human TRH-DE (Homo sapiens, UniProt Q9UKU6).
T1 construct: expressed in transfected cells; host or cells: Expi 293 cells (transient expression), membrane fraction
T1 sequence (Q9UKU6 1-1069): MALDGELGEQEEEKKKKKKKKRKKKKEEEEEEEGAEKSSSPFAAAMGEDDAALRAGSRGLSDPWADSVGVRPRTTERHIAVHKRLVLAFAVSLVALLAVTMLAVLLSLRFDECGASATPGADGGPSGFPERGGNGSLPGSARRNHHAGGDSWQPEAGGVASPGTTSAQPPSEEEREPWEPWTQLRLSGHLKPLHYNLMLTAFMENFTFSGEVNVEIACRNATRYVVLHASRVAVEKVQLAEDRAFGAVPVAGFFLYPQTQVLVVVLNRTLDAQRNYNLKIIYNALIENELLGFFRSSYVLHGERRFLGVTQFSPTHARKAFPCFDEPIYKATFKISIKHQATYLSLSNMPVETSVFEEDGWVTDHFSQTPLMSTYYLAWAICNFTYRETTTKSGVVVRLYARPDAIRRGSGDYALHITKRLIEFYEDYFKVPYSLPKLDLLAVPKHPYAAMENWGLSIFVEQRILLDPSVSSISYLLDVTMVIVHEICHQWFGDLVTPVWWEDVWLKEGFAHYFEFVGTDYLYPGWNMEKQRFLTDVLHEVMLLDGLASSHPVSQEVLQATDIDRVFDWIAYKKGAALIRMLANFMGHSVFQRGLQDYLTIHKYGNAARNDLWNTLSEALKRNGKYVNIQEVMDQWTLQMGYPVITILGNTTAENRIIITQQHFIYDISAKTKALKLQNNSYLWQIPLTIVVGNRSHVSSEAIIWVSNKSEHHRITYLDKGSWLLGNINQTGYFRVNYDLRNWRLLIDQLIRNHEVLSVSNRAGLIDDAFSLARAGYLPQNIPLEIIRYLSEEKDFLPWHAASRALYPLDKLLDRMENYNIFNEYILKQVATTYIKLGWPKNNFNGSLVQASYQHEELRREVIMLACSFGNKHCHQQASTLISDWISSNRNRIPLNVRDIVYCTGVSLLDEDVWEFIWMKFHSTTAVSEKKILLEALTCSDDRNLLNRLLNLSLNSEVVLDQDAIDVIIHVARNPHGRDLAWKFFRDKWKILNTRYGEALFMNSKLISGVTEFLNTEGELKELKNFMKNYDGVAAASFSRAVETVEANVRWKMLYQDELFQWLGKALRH
The experiment in a line: TRH-DE inhibition test (RapidFire MS measurement of product Cyclo (His-Pro)). It counts as biochemical. The settings on record: membrane fraction of Expi 293 cells expressing human TRH-DE; 10 μM TRH substrate; room temperature, 2 hours; 16-point concentration test. The essentials:
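Inhibition derived from product/internal-standard ratios of Cyclo(His-Pro), quantified by RapidFire triple-quadrupole MS after acetonitrile:methanol quench, with IC50 fitted over 16 concentrations. Enzyme source: membranes of Expi 293 cells transiently expressing human TRH-DE, 4 μg/ml, pH 7.4 phosphate buffer. Incubation with 10 μM substrate ran 2 h at room temperature.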
As for `C[C@@H]1COc2ccncc2C(=O)N1C1CC2(C1)CN(S(=O)(=O)c1ccccc1F)C2` [Example 19], the IC50 was 2 nM.

In the case of `C[C@@H]1COc2cc(Cl)ncc2C(=O)N1C1CC2(C1)CN(S(=O)(=O)c1ccccc1F)C2` [Example 22], inhibition was half-maximal at 2 nM (IC50).

In turn, `C[C@@H]1COc2cc(C(F)(F)F)ncc2C(=O)N1C1CC2(C1)CN(S(=O)(=O)c1ccccc1F)C2` [Example 24] displayed an IC50 of 3 nM.

`C[C@@H]1COc2ncc(F)cc2C(=O)N1C1CC2(C1)CN(S(=O)(=O)c1ccccc1F)C2` [Example 27] had an IC50 of 14 nM.

`C[C@@H]1COc2ncc(Cl)cc2C(=O)N1C1CC2(C1)CN(S(=O)(=O)c1ccccc1F)C2` [Example 32] displayed an IC50 of 3 nM.

Take `C[C@@H]1COc2ncc(C(F)(F)F)cc2C(=O)N1C1CC2(C1)CN(S(=O)(=O)c1ccccc1F)C2` [Example 33]: the IC50 was found to be 15 nM.

With `C[C@@H]1COc2nc(Cl)ccc2C(=O)N1C1CC2(C1)CN(S(=O)(=O)c1ccccc1F)C2` [Example 34], the IC50 was found to be 8 nM.

For `C[C@@H]1COc2nc(OC(F)(F)F)ccc2C(=O)N1C1CC2(C1)CN(S(=O)(=O)c1ccccc1F)C2` [Example 35], the IC50 stood at 7 nM.

The molecule `C[C@@H]1COc2nc(Cl)c(F)cc2C(=O)N1C1CC2(C1)CN(S(=O)(=O)c1ccccc1F)C2` [Example 36] gave an IC50 of 21 nM.

As to `Cc1nc2c(cc1Br)C(=O)N(C1CC3(C1)CN(S(=O)(=O)c1ccccc1F)C3)[C@H](C)CO2` [Example 37], the IC50 amounted to 6 nM.

In turn, `C[C@@H]1COc2ncccc2C(=O)N1C1CC2(C1)CN(S(=O)(=O)c1ccccc1F)C2` [Example 38] had an IC50 of 12 nM.

As for `CC[C@@H]1COc2ncccc2C(=O)N1C1CC2(C1)CN(S(=O)(=O)c1ccccc1F)C2` [Example 39], the midpoint of inhibition, the IC50, lay at 20 nM.

`C[C@@H]1COc2nc(Cl)cnc2C(=O)N1C1CC2(C1)CN(S(=O)(=O)c1ccccc1F)C2` [Example 40, (7R)-3-chloro-8-[2-(2-fluorophenyl)sulfonyl-2-azaspiro[3.3]heptan-6-yl]-7-methyl-6,7-dihydropyrazino[2,3-f][1,4]oxazepin-9-one] came in with an IC50 of 5 nM.

Regarding `CC[C@@H]1COc2ncc(F)cc2C(=O)N1C1CC2(C1)CN(S(=O)(=O)c1ccccc1F)C2` [Example 41], it took 70 nM to reach half-maximal inhibition (IC50).

Regarding `C[C@@H]1COc2nc(F)ccc2C(=O)N1C1CC2(C1)CN(S(=O)(=O)c1ccccc1F)C2` [Example 42], half-maximal inhibition (IC50) required 9 nM.

`CC[C@@H]1COc2nc(F)ccc2C(=O)N1C1CC2(C1)CN(S(=O)(=O)c1ccccc1F)C2` [Example 43] registered an IC50 of 32 nM.

For `C[C@@H]1COc2nc(C(F)(F)F)ncc2C(=O)N1C1CC2(C1)CN(S(=O)(=O)c1ccccc1F)C2` [Example 44], the IC50 was 14 nM.

The molecule `C[C@@H]1COc2cc(C3CC3)ncc2C(=O)N1C1CC2(C1)CN(S(=O)(=O)c1ccccc1[N+](=O)[O-])C2` [Example 53] had an IC50 of 42 nM.

The molecule `C[C@@H]1COc2nc(C3CC3)ccc2C(=O)N1C1CC2(C1)CN(S(=O)(=O)c1ccccc1[N+](=O)[O-])C2` [Example 55] yielded a concentration for half-maximal inhibition (IC50) of 54 nM.

Molecule `C[C@@H]1COc2nc(C(F)(F)F)ccc2C(=O)N1C1CC2(C1)CN(S(=O)(=O)c1ccccc1F)C2` [Example 56] registered a 50% inhibitory concentration (IC50) of 8 nM.

In the case of `C[C@@H]1COc2nc(C(F)(F)F)ccc2C(=O)N1C1CC2(C1)CN(S(=O)(=O)c1ccccc1[N+](=O)[O-])C2` [Example 57], the half-maximal inhibitory concentration (IC50) is 253 nM.

`Cc1nc2c(cc1F)C(=O)N(C1CC3(C1)CN(S(=O)(=O)c1ccccc1[N+](=O)[O-])C3)[C@H](C)CO2` [Example 58] displayed an IC50 of 180 nM.

Molecule `O=C1c2cccnc2OC[C@@H](C2CC2)N1C1CC2(C1)CN(S(=O)(=O)c1ccccc1F)C2` [Example 60] showed an IC50 of 49 nM.

`O=C1c2cccnc2OCC2(CC2)N1C1CC2(C1)CN(S(=O)(=O)c1ccccc1F)C2` [Example 61] yielded a half-maximal inhibitory concentration (IC50) of 653 nM.

`O=C1c2ccc(C(F)(F)F)nc2OCC2(CC2)N1C1CC2(C1)CN(S(=O)(=O)c1ccccc1F)C2` [Example 62] came in with an IC50 of 393 nM.

For the molecule `O=C1c2cccnc2CC(C(F)(F)F)N1C1CC2(C1)CN(S(=O)(=O)c1ccccc1F)C2` (stereo not drawn) [Example 68], the IC50 was determined as 120 nM.

`CCn1c2ccccc2c(=O)n1C1CC2(C1)CN(S(=O)(=O)c1cc(C)ccc1F)C2` [Example 69] came in with an IC50 of 66 nM.

`Cc1ccc(F)c(S(=O)(=O)N2CC3(CC(N4C(=O)c5cccnc5OCC4C)C3)C2)c1` (stereo not drawn) [Example 70, 4-[2-(2-fluoro-5-methyl-phenyl)sulfonyl-2-azaspiro[3.3]heptan-6-yl]-3-methyl-2,3-dihydropyrido[3,2-f][1,4]oxazepin-5-one] returned an IC50 of 25 nM.

Molecule `CC1COc2ncccc2C(=O)N1C1CC2(C1)CN(S(=O)(=O)c1ccccc1)C2` (stereo not drawn) [Example 84, 4-[2-(benzenesulfonyl)-2-azaspiro[3.3]heptan-6-yl]-3-methyl-2,3-dihydropyrido[3,2-f][1,4]oxazepin-5-one] showed an IC50 of 85 nM.

Take `Cc1nc2c(s1)C(=O)N(C1CC3(C1)CN(S(=O)(=O)c1ccccc1F)C3)[C@H](C)CC2` [Example 90]: the IC50 stood at 23 nM.

In turn, `C[C@@H]1CCc2nc(C(C)(F)F)sc2C(=O)N1C1CC2(C1)CN(S(=O)(=O)c1ccccc1F)C2` [Example 91] showed an IC50 of 8 nM.

Consider `C[C@@H]1CCc2nc([C@H]3C[C@H]3F)sc2C(=O)N1C1CC2(C1)CN(S(=O)(=O)c1ccccc1F)C2` [Example 95], for which the IC50 amounted to 4 nM.

Molecule `C[C@@H]1CCc2nc([C@@H]3C[C@@H]3F)sc2C(=O)N1C1CC2(C1)CN(S(=O)(=O)c1ccccc1F)C2` [Example 96] gave an IC50 of 2 nM.

The molecule `C[C@@H]1CCc2nc(C3(C(F)(F)F)CC3)sc2C(=O)N1C1CC2(C1)CN(S(=O)(=O)c1ccccc1F)C2` [Example 97] showed an IC50 of 3 nM.

The molecule `Cc1snc2c1CC[C@@H](C)N(C1CC3(C1)CN(S(=O)(=O)c1ccccc1F)C3)C2=O` [Example 99] yielded an IC50 of 16 nM.

`Cc1nsc2c1C(=O)N(C1CC3(C1)CN(S(=O)(=O)c1ccccc1F)C3)[C@H](C)CC2` [Example 100] registered an IC50 of 16 nM.

Molecule `C[C@@H]1CCc2oc(C3CC3)nc2C(=O)N1C1CC2(C1)CN(S(=O)(=O)c1ccccc1F)C2` [Example 101] gave an IC50 of 14 nM.

For the molecule `Cc1onc2c1CC[C@@H](C)N(C1CC3(C1)CN(S(=O)(=O)c1ccccc1F)C3)C2=O` [Example 103], the IC50 came to 10 nM.

Regarding `CC1CCc2c(noc2C2CC2)C(=O)N1C1CC2(C1)CN(S(=O)(=O)c1ccccc1F)C2` (stereo not drawn) [Example 104], the IC50 came to 14 nM.

Molecule `Cc1noc2c1C(=O)N(C1CC3(C1)CN(S(=O)(=O)c1ccccc1F)C3)[C@H](C)CC2` [Example 105] had an IC50 of 14 nM.

The molecule `C[C@@H]1CCc2nc(C3(F)CC3)sc2C(=O)N1C1CC2(C1)CN(S(=O)(=O)c1ccccc1F)C2` [Example 109, (6R)-2-(1-fluorocyclopropyl)-5-[2-(2-fluorophenyl)sulfonyl-2-azaspiro[3.3]heptan-6-yl]-6-methyl-7,8-dihydro-6H-thiazolo[5,4-c]azepin-4-one] gave an IC50 of 3 nM.

`CC(C)c1nc2c(s1)C(=O)N(C1CC3(C1)CN(S(=O)(=O)c1ccccc1F)C3)[C@H](C)CC2` [Example 110, (6R)-5-[2-(2-fluorophenyl)sulfonyl-2-azaspiro[3.3]heptan-6-yl]-2-isopropyl-6-methyl-7,8-dihydro-6H-thiazolo[5,4-c]azepin-4-one]: the IC50 was found to be 4 nM.
